Reference: PubChem BioAssay AID1259407 (Chemical Carcinogenesis Research Information System (CCRIS), 2018)
Activity calls are given as the source filed them. No rule for the calls is given here.

Tested on: CCRIS mutagenicity, Ames/micronucleus/aberration tests
Experiment: CCRIS mutagenicity studies
[1] = Test System: AMES SALMONELLA TYPHIMURIUM, Strain/Indicator: TA100, Metabolic Activation: NONE, Method: STANDARD PLATE
[2] = Test System: CHINESE HAMSTER V-79, Strain/Indicator: V-79/6-THIOGUANINE, Metabolic Activation: NONE
[3] = Test System: AMES SALMONELLA TYPHIMURIUM, Strain/Indicator: TA1537, Metabolic Activation: NONE, Method: PREINCUBATION
[4] = Test System: AMES SALMONELLA TYPHIMURIUM, Strain/Indicator: TA98, Metabolic Activation: NONE, Method: STANDARD PLATE
[5] = Test System: AMES SALMONELLA TYPHIMURIUM, Strain/Indicator: TA1535, Metabolic Activation: NONE, Method: STANDARD PLATE
[6] = Test System: AMES SALMONELLA TYPHIMURIUM, Strain/Indicator: TA1537, Metabolic Activation: NONE, Method: STANDARD PLATE

Compound: CCOC(=O)C(C)(C)Oc1ccc(Cl)cc1
- mutagenic call (End Point: In vitro micronucleus, Test System: Mouse lymphoma L5178Y cells, Metabolic Activation: None): active; positive
- mutagenic call (Test System: AMES SALMONELLA TYPHIMURIUM, Strain/Indicator: TA100(FR1), Metabolic Activation: NONE, Method: STANDARD PLATE): inactive; negative
- mutagenic call (Test System: AMES SALMONELLA TYPHIMURIUM, Strain/Indicator: TA100(FR1), Metabolic Activation: RAT, LIVER, S-9, PHENOBARBITAL AND 3-METHYLCHOLANTHRENE, Method: STANDARD PLATE): inactive; negative
- mutagenic call [1]: inactive; negative
- mutagenic call (Test System: AMES SALMONELLA TYPHIMURIUM, Strain/Indicator: TA100, Metabolic Activation: RAT, LIVER, S-9, PHENOBARBITAL AND 3-METHYLCHOLANTHRENE, Method: STANDARD PLATE): inactive; negative
- mutagenic call (Test System: AMES SALMONELLA TYPHIMURIUM, Strain/Indicator: TA102, Metabolic Activation: RAT LIVER S-9, PHENOBARBITAL AND 5,6-BENZOFLAVONE, Method: STANDARD PLATE): inactive; negative
- mutagenic call (Test System: AMES SALMONELLA TYPHIMURIUM, Strain/Indicator: TA2638, Metabolic Activation: RAT LIVER S-9, PHENOBARBITAL AND 5,6-BENZOFLAVONE, Method: STANDARD PLATE): inactive; negative
- mutagenic call [2]: inactive; negative
- mutagenic call (Test System: CHINESE HAMSTER V-79, Strain/Indicator: V-79/6-THIOGUANINE, Metabolic Activation: RAT, LIVER, HEPATOCYTES): inactive; negative
- mutagenic call (Test System: CHINESE HAMSTER V-79, Strain/Indicator: V-79/OUABAIN, Metabolic Activation: NONE): inactive; negative
- mutagenic call (Test System: CHINESE HAMSTER V-79, Strain/Indicator: V-79/OUABAIN, Metabolic Activation: RAT, LIVER, HEPATOCYTES): inactive; negative
- mutagenic call (Test System: E. COLI, Strain/Indicator: WP2 (PKM101), Metabolic Activation: RAT LIVER S-9, PHENOBARBITAL AND 5,6-BENZOFLAVONE, Method: STANDARD PLATE): inactive; negative
- mutagenic call (Test System: E. COLI, Strain/Indicator: WP2 UVRA (PKM101), Metabolic Activation: RAT LIVER S-9, PHENOBARBITAL AND 5,6-BENZOFLAVONE, Method: STANDARD PLATE): inactive; negative
- mutagenic call (Test System: Mouse lymphoma, Strain/Indicator: L5178Y (tk+/tk-)/Trifluorothymidine, Metabolic Activation: None, Method: Microtiter): inactive; negative

Compound: CC(C)CCC[C@@H](C)[C@H]1CC[C@H]2[C@@H]3[C@H](OO)C=C4C[C@@H](O)CC[C@]4(C)[C@H]3CC[C@]12C
- mutagenic call [3]: active; positive

Compound: CCCCN(CCO)N=O
- mutagenic call (Test System: AMES SALMONELLA TYPHIMURIUM, Strain/Indicator: TA1535, Metabolic Activation: RAT, LIVER, S-9, KC500 OR PHENOBARBITAL, Method: LIQUID SUSPENSION): active; positive

Compound: CCn1cc(C(=O)O)c(=O)c2cc(F)c(-c3ccncc3)c(F)c21
- mutagenic call (Test System: AMES SALMONELLA TYPHIMURIUM, Strain/Indicator: TA98, Metabolic Activation: MOUSE, LIVER, S-9, AROCLOR 1254, Method: STANDARD PLATE): inactive; negative
- mutagenic call [4]: inactive; negative
- mutagenic call (Test System: AMES SALMONELLA TYPHIMURIUM, Strain/Indicator: TA98, Metabolic Activation: RAT, LIVER, S-9, AROCLOR 1254, Method: STANDARD PLATE): inactive; negative
- mutagenic call (Test System: AMES SALMONELLA TYPHIMURIUM, Strain/Indicator: TA100, Metabolic Activation: MOUSE, LIVER, S-9, AROCLOR 1254, Method: STANDARD PLATE): inactive; negative
- mutagenic call [1]: inactive; negative
- mutagenic call (Test System: AMES SALMONELLA TYPHIMURIUM, Strain/Indicator: TA100, Metabolic Activation: RAT, LIVER, S-9, AROCLOR 1254, Method: STANDARD PLATE): inactive; negative
- mutagenic call (Test System: AMES SALMONELLA TYPHIMURIUM, Strain/Indicator: TA1535, Metabolic Activation: MOUSE, LIVER, S-9, AROCLOR 1254, Method: STANDARD PLATE): inactive; negative
- mutagenic call [5]: inactive; negative
- mutagenic call (Test System: AMES SALMONELLA TYPHIMURIUM, Strain/Indicator: TA1535, Metabolic Activation: RAT, LIVER, S-9, AROCLOR 1254, Method: STANDARD PLATE): inactive; negative
- mutagenic call (Test System: AMES SALMONELLA TYPHIMURIUM, Strain/Indicator: TA1537, Metabolic Activation: MOUSE, LIVER, S-9, AROCLOR 1254, Method: STANDARD PLATE): inactive; negative
- mutagenic call [6]: inactive; negative
- mutagenic call (Test System: AMES SALMONELLA TYPHIMURIUM, Strain/Indicator: TA1537, Metabolic Activation: RAT, LIVER, S-9, AROCLOR 1254, Method: STANDARD PLATE): inactive; negative
- mutagenic call (Test System: CHINESE HAMSTER OVARY, Strain/Indicator: CHO-K1-CMZ (HGPRT), Metabolic Activation: NONE): active; positive
- mutagenic call [2]: active; positive
- mutagenic call (Test System: CHINESE HAMSTER V-79, Strain/Indicator: V-79/6-THIOGUANINE, Metabolic Activation: RAT, LIVER, S-9, AROCLOR 1254): active; positive
- mutagenic call (Test System: MOUSE LYMPHOMA, Strain/Indicator: L5178Y (TK+/TK-), Metabolic Activation: NONE, Method: SUSPENSION/PLATE): active; positive
- mutagenic call (Test System: MOUSE LYMPHOMA, Strain/Indicator: L5178Y (TK+/TK-), Metabolic Activation: RAT, LIVER, S-9, Method: SUSPENSION/PLATE): active; positive

Compound: CC(O)C(C)O (stereo not given)
- mutagenic call (Test System: AMES SALMONELLA TYPHIMURIUM, Strain/Indicator: TA98, Metabolic Activation: NONE, Method: PREINCUBATION): inactive; negative
- mutagenic call (Test System: AMES SALMONELLA TYPHIMURIUM, Strain/Indicator: TA100, Metabolic Activation: NONE, Method: PREINCUBATION): inactive; negative
- mutagenic call (Test System: AMES SALMONELLA TYPHIMURIUM, Strain/Indicator: TA1535, Metabolic Activation: NONE, Method: PREINCUBATION): inactive; negative
- mutagenic call [3]: inactive; negative
- mutagenic call (Test System: AMES SALMONELLA TYPHIMURIUM, Strain/Indicator: TA1538, Metabolic Activation: NONE, Method: PREINCUBATION): inactive; negative
- mutagenic call (Test System: E. COLI, Strain/Indicator: WP2 UVRA, Metabolic Activation: NONE, Method: PREINCUBATION): inactive; negative

Compound: CCN(CC)c1ccc(C(=C2C=CC(=[N+](CC)CC)C=C2)c2ccc(N(CC)CC)cc2)cc1
- mutagenic call (Test System: AMES SALMONELLA TYPHIMURIUM, Strain/Indicator: TA98, Metabolic Activation: HAMSTER, LIVER, S-9, AROCLOR 1254 (10%), Method: STANDARD PLATE): inactive; negative
- mutagenic call [4]: inactive; negative
- mutagenic call (Test System: AMES SALMONELLA TYPHIMURIUM, Strain/Indicator: TA98, Metabolic Activation: RAT, LIVER, S-9, AROCLOR 1254 (10%), Method: STANDARD PLATE): inactive; negative
- mutagenic call (Test System: AMES SALMONELLA TYPHIMURIUM, Strain/Indicator: TA100, Metabolic Activation: HAMSTER, LIVER, S-9, AROCLOR 1254 (10%), Method: STANDARD PLATE): inactive; negative
- mutagenic call [1]: inactive; negative
- mutagenic call (Test System: AMES SALMONELLA TYPHIMURIUM, Strain/Indicator: TA100, Metabolic Activation: RAT, LIVER, S-9, AROCLOR 1254 (10%), Method: STANDARD PLATE): inactive; negative
- mutagenic call [5]: inactive; negative
- mutagenic call (Test System: AMES SALMONELLA TYPHIMURIUM, Strain/Indicator: TA1535, Metabolic Activation: RAT, LIVER, S-9, AROCLOR 1254 (10%), Method: STANDARD PLATE): inactive; negative
- mutagenic call (Test System: AMES SALMONELLA TYPHIMURIUM, Strain/Indicator: TA1537, Metabolic Activation: HAMSTER, LIVER, S-9, AROCLOR 1254 (10%), Method: STANDARD PLATE): inactive; negative
- mutagenic call [6]: inactive; negative
- mutagenic call (Test System: AMES SALMONELLA TYPHIMURIUM, Strain/Indicator: TA1537, Metabolic Activation: RAT, LIVER, S-9, AROCLOR 1254 (10%), Method: STANDARD PLATE): inactive; negative
- mutagenic call (Test System: AMES SALMONELLA TYPHIMURIUM, Strain/Indicator: TA1538, Metabolic Activation: HAMSTER, LIVER, S-9, AROCLOR 1254 (10%), Method: STANDARD PLATE): inactive; negative
- mutagenic call (Test System: AMES SALMONELLA TYPHIMURIUM, Strain/Indicator: TA1538, Metabolic Activation: NONE, Method: STANDARD PLATE): inactive; negative
- mutagenic call (Test System: AMES SALMONELLA TYPHIMURIUM, Strain/Indicator: TA1538, Metabolic Activation: RAT, LIVER, S-9, AROCLOR 1254 (10%), Method: STANDARD PLATE): inactive; negative
- mutagenic call (Test System: Mouse lymphoma, Strain/Indicator: L5178Y (tk+/tk-), Metabolic Activation: None, Method: Suspension/plate): inactive; negative
- mutagenic call (Test System: Mouse lymphoma, Strain/Indicator: L5178Y (tk+/tk-), Metabolic Activation: Rat, Liver, S-9, Aroclor 1254, Method: Suspension/plate): inactive; inconclusive (previous results negative)
